In US5326766A, “4-(2-(4-(2-pyridinyloxy)phenyl)ethoxy)quinazoline and analogues thereof” (priority 1992, dated 1994):

Tests used:
[1] = system: Puccinia recondita tritici (leaf rust); assay: Foliar spray fungicide test, Puccinia recondita tritici (leaf rust) on wheat; conditions: for pest or weed control at 400 µg/mL: Puccinia recondita, in Triticum aestivum, foliar, read-out: PUCCRT disease control, host wheat, 400 ppm (+++: 100 ppm); for PUCCRT disease control: host wheat, 400 ppm (+++: 100 ppm)
[2] = system: beet armyworm (Spodoptera exiqua); assay: Activity against beet armyworm; assay type: in vivo; conditions: 6 days; for pest or weed control at 50 ppm / pest or weed control at 400 ppm: Spodoptera, 144 h, read-out: BAW activity (rated on live and dead larvae and size of live larvae); for pest or weed control at 400 ppm / BAW activity (rated on live and dead larvae and size of live larvae): 400 ppm
Description: (§1) The compounds identified in Table I were tested for miticidal and insecticidal activity against eight species. The following abbreviations are used in the Table III:
BAW refers to beet armyworm
(§2) In conducting evaluations of insecticidal activity, each test compound was formulated as a 400 ppm solution, and this solution was then diluted with water to give lesser concentrations. The 400 ppm solution was prepared by combining 19.2 mL of 0.05% solution of Tween 20 (polyoxyethylene (20) sorbitan monolaurate) in water with a solution of 8 mg of the compound in 0.8 mL of acetone/EtOH (9/1).
Activity against beet armyworm (Spodoptera exiqua) was evaluated as follows. The test is run using concentrations of 400 ppm and 50 ppm. A general purpose lepidoptera artificial diet was diluted to half strength with a 5% non nutritive agar. 8 mL of this diet material was dispensed into one ounce diet cups. One hour prior to treatment, 35 to 40 eggs were dispensed onto the diet surface. The cups were then sprayed with formulated material through a flat-fan nozzle. Treated cups were air dried prior to sealing with plastic caps. The cups were held for 6 days at room temperature. Activity was then rated based on the total number of live and dead larvae, and on the size of live larvae.

[3] = system: Erysiphe graminis tritici (powdery mildew); assay: Foliar spray fungicide test, Erysiphe graminis tritici (powdery mildew) on wheat; conditions: for pest or weed control at 400 µg/mL: Blumeria graminis, in Triticum aestivum, foliar, read-out: ERYSGT disease control, host wheat, 400 ppm (+++: 100 ppm); for ERYSGT disease control: host wheat, 400 ppm (+++: 100 ppm)
[4] = system: Leptosphaeria nodorum (glume blotch); assay: Foliar spray fungicide test, Leptosphaeria nodorum (glume blotch) on wheat; conditions: for pest or weed control at 400 µg/mL: Parastagonospora nodorum, in Triticum aestivum, foliar, read-out: LETPNO disease control, host wheat, 400 ppm (+++: 100 ppm); for LETPNO disease control: host wheat, 400 ppm (+++: 100 ppm)
[5] = system: Plasmopara viticola (downy mildew); assay: Foliar spray fungicide test, Plasmopara viticola (downy mildew) on grape; conditions: for pest or weed control at 400 µg/mL: Plasmopara viticola, foliar, read-out: PLASVI disease control
[6] = system: cotton aphid (Aphis gossypii); assay: whole plant or invertebrate; conditions: 72 h; for mortality at 50 ppm: read-out: CA activity (percent based on aphids present in plants sprayed with solvent alone), 50 ppm, squash plants, three days after treatment; for mortality at 400 ppm: read-out: CA activity (percent based on aphids present in plants sprayed with solvent alone), 400 ppm, squash plants, three days after treatment
[7] = system: two spotted spider mite (Tetranychus urticae); assay: whole plant or invertebrate; conditions: 72 h; for mortality at 400 ppm: read-out: TSSM activity (percent based on mites present in plants sprayed with solvent alone), 400 ppm, squash plants, three days after treatment; for mortality at 50 ppm: read-out: TSSM activity (percent based on mites present in plants sprayed with solvent alone), 50 ppm, squash plants, three days after treatment
[8] = system: aster leafhopper (Macrosteles fascifrons); assay: whole plant or invertebrate; assay type: in vivo; conditions: for mortality at 50 ppm / mortality at 400 ppm: Macrosteles fascifrons, 24 h, read-out: ALH percent mortality; for mortality at 400 ppm / ALH percent mortality: 400 ppm; for ALH percent mortality: 24 hours, 1440 min
Description: as §1
ALH refers to aster leafhopper
as §2
Activity against aster leafhopper (Macrosteles fascifrons) was tested as follows. The test was run using concentrations of 400 ppm and 50 ppm. One ounce plastic cups containing a cotton wick was sprayed with 0.4 mL of formulated material using a flat-fan nozzle. The excess moisture was allowed to evaporate. Then five to ten carbon dioxide anesthetized adult leafhoppers were added to each cup. The cups were capped and held at room temperature for 24 hours. Percent mortality was then determined.

[9] = system: Pyricularia oryzae (rice blast); assay: whole plant or invertebrate; assay type: in vivo; conditions: foliar spray, 400 ppm (+++: 100 ppm); for pest or weed control at 400 µg/mL: Pyricularia oryzae, foliar, read-out: PYRIOR disease control, host rice; for PYRIOR disease control: host rice
[10] = system: Southern corn rootworm (Diabrotica undecimpuctata howardi Barber); assay: whole plant or invertebrate; assay type: in vivo; conditions: 400 ppm, soil concentration of 24 ppm, 3-4 days, read-out: SCRW mortality
Description: as §1
SCRW refers to southern corn rootworm
as §2
Activity on Southern corn rootworm (Diabrotica undecimpuctata howardi Barber) was evaluated by adding one mL of test solution containing a predetermined concentration of test compound to a cup containing a kernel of corn in 16 g of sterile soil. This produces a soil concentration of 24 ppm. After 1.5 to 2 hours of drying, five 4th instar corn rootworm larvae were added to the individual cups. Mortality was measured at 3-4 days by emptying the cup onto a pan and inspecting the soil for live rootworms.

[11] = system: Southern corn rootworm (Diabrotica undecimpuctata howardi Barber); assay: whole plant or invertebrate; assay type: in vivo; conditions: 3-4 days, read-out: SCRW mortality
[12] = system: tobacco budworm (Heliothis virescens); assay: Activity against tobacco budworm; assay type: in vivo; conditions: 6 days; for pest or weed control at 400 ppm / pest or weed control at 50 ppm: Heliothis virescens, 144 h, read-out: TBW activity (rated on live and dead larvae and size of live larvae); for pest or weed control at 400 ppm / TBW activity (rated on live and dead larvae and size of live larvae): 400 ppm
Description: as §1
TBW refers to tobacco budworm
as §2
Activity against tobacco budworm (Heliothis virescens) was evaluated as follows. A general purpose lepidoptera artificial diet was diluted to half strength with a 5% non nutritive agar. 8 mL of this diet material was dispensed into each one ounce diet cup. One hour prior to treatment 18 to 20 eggs were dispensed onto the diet surface. The cups were then sprayed with formulated material through a flat-fan nozzle. The test was run using concentrations of 400 ppm and 50 ppm. Treated cups were air dried prior to sealing with plastic caps. The cups were held for 6 days at room temperature. Activity was then rated based on the total number of live and dead larvae, and on the size of live larvae.

[13] = system: German cockroach (Blattella germanicus); assay: whole plant or invertebrate; assay type: in vivo; conditions: 240 h, ten days, read-out: GECR activity (rated on live and dead insects)
Description: as §1
GECR refers to German cockroach
as §2
Activity against German cockroach (Blattella germanicus) was evaluated as follows. 8 mL of alfalfa based green insect diet material was dispensed into a one ounce diet cup. The cups were then sprayed with formulated material through a flat-fan nozzle. The test was run using concentrations of 400 ppm and 50 ppm. Treated cups were air dried for 24 hours and infested with five late third or early fourth instar German cockroaches. The cups were capped and held for ten days in an environmental growth chamber at a temperature of […]. Activity was then rated based on the total number of live and dead insects.

[14] = system: cotton aphid (Aphis gossypii); conditions: 400 ppm, squash plants, three days after treatment, 4320 min
[15] = system: two spotted spider mite (Tetranychus urticae); conditions: 400 ppm, squash plants, three days after treatment, 4320 min

## Fc1cccc2c(OCCc3ccc(Oc4ccc(C(F)(F)F)cn4)cc3)ncnc12 [Compound 27, 8-Fluoro-4-(2-(4-(5-(trifluoromethyl)-2-pyridinyloxy)phenyl)ethoxy)quinazoline]
[1]
  pest or weed control at 400 µg/mL: 90 to 100%
[2]
  pest or weed control at 50 ppm: 100%
  pest or weed control at 400 ppm: 100%
[3]
  pest or weed control at 400 µg/mL: 90 to 100%
[4]
  pest or weed control at 400 µg/mL: 0 to 19%
[5]
  pest or weed control at 400 µg/mL: 90 to 100%
[6]
  mortality at 50 ppm: 90%
  mortality at 400 ppm: 100%
[7]
  mortality at 400 ppm: 100%
[8]
  mortality at 50 ppm: 100%
  mortality at 400 ppm: 100%
[9]
  pest or weed control at 400 µg/mL: 90 to 100%
[10]
  mortality at 24 ppm: 100%
[11]
  mortality at 50 ppm: 100%
[12]
  pest or weed control at 400 ppm: 100%

## Fc1cccc2c(OCCc3ccc(Oc4cc(C(Cl)(Cl)Cl)cc(Cl)n4)cc3)ncnc12 [Compound 34]
[1]
  pest or weed control at 400 µg/mL: 20 to 89%
[2]
  pest or weed control at 50 ppm: 0%
  pest or weed control at 400 ppm: 100%
[3]
  pest or weed control at 400 µg/mL: 0 to 19%
[4]
  pest or weed control at 400 µg/mL: 0 to 19%
[5]
  pest or weed control at 400 µg/mL: 0 to 19%
[6]
  mortality at 50 ppm: 0%
  mortality at 400 ppm: 0%
[7]
  mortality at 50 ppm: 0%
  mortality at 400 ppm: 0%
[8]
  mortality at 50 ppm: 40%
  mortality at 400 ppm: 20%
[9]
  pest or weed control at 400 µg/mL: 20 to 89%
[10]
  mortality at 24 ppm: 0%
[13]
  mortality at 50 ppm: 0%
  mortality at 400 ppm: 0%
[12]
  pest or weed control at 50 ppm: 0%
  pest or weed control at 400 ppm: 80%

## COc1cc(C(Cl)(Cl)Cl)cc(Oc2ccc(CCNc3ncnc4c(F)cccc34)cc2)n1 [Compound 35]
[1]
  pest or weed control at 400 µg/mL: 90 to 100%
[2]
  pest or weed control at 50 ppm: 100%
  pest or weed control at 400 ppm: 100%
[3]
  pest or weed control at 400 µg/mL: 0 to 19%
[4]
  pest or weed control at 400 µg/mL: 0 to 19%
[5]
  pest or weed control at 400 µg/mL: 0 to 19%
[6]
  mortality at 50 ppm: 0%
  mortality at 400 ppm: 0%
[7]
  mortality at 50 ppm: 0%
  mortality at 400 ppm: 0%
[8]
  mortality at 50 ppm: 0%
  mortality at 400 ppm: 80%
[9]
  pest or weed control at 400 µg/mL: 0 to 19%
[10]
  mortality at 24 ppm: 0%
[13]
  mortality at 400 ppm: 0%
[12]
  pest or weed control at 50 ppm: 0%
  pest or weed control at 400 ppm: 80%

## Fc1cccc2c(OCCc3ccc(Oc4nc(Cl)c(Cl)cc4Cl)cc3)ncnc12 [Compound 42]
[1]
  PUCCRT disease control: + (20-89% control at 400 ppm)
[2]
  BAW activity (rated on live and dead larvae and size of live larvae): 0
[14]
  CA activity (percent based on aphids present in plants sprayed with solvent alone): 0%
[3]
  ERYSGT disease control: - (0-19% control at 400 ppm)
[4]
  LETPNO disease control: - (0-19% control at 400 ppm)
[5]
  pest or weed control at 400 µg/mL: 20 to 89%
[15]
  TSSM activity (percent based on mites present in plants sprayed with solvent alone): 0%
[8]
  ALH percent mortality: 60%
[9]
  PYRIOR disease control: - (0-19% control at 400 ppm)
[12]
  TBW activity (rated on live and dead larvae and size of live larvae): 0

## Fc1cccc2c(OCCc3ccc(Oc4nc(Cl)c(Cl)cc4Cl)cc3)ncnc12 [Compound 44]
[1]
  PUCCRT disease control: +++ (90-100% control at 100 ppm)
[2]
  BAW activity (rated on live and dead larvae and size of live larvae): 100
[14]
  CA activity (percent based on aphids present in plants sprayed with solvent alone): 100%
[3]
  ERYSGT disease control: +++ (90-100% control at 100 ppm)
[4]
  LETPNO disease control: + (20-89% control at 400 ppm)
[5]; host grape, foliar spray, 400 ppm (+++: 100 ppm)
  PLASVI disease control: + (20-89% control at 400 ppm)
[15]
  TSSM activity (percent based on mites present in plants sprayed with solvent alone): 50%
[8]
  ALH percent mortality: 0%
[9]
  PYRIOR disease control: + (20-89% control at 400 ppm)
[10]
  mortality at 24 ppm: 100%
[13]
  mortality at 400 ppm: 20%
[12]
  TBW activity (rated on live and dead larvae and size of live larvae): 100

## c1cnc(Oc2ccc(CCOc3ncnc4ccccc34)cc2)nc1 [Compound 45]
[1]
  pest or weed control at 400 µg/mL: 90 to 100%
[2]
  pest or weed control at 50 ppm: 100%
  pest or weed control at 400 ppm: 100%
[3]
  pest or weed control at 400 µg/mL: 90 to 100%
[4]
  pest or weed control at 400 µg/mL: 0 to 19%
[5]
  pest or weed control at 400 µg/mL: 90 to 100%
[6]
  mortality at 50 ppm: 100%
  mortality at 400 ppm: 100%
[7]
  mortality at 50 ppm: 40%
  mortality at 400 ppm: 60%
[8]
  mortality at 50 ppm: 60%
  mortality at 400 ppm: 40%
[9]
  pest or weed control at 400 µg/mL: 90 to 100%
[10]
  mortality at 24 ppm: 0%
[13]
  mortality at 50 ppm: 0%
  mortality at 400 ppm: 20%
[12]
  pest or weed control at 50 ppm: 100%
  pest or weed control at 400 ppm: 100%

## c1ccc2c(OCCc3ccc(Oc4cnccn4)cc3)ncnc2c1 [Compound 51]
[1]
  pest or weed control at 400 µg/mL: 0 to 19%
[2]
  pest or weed control at 50 ppm: 100%
  pest or weed control at 400 ppm: 100%
[3]
  pest or weed control at 400 µg/mL: 90 to 100%
[4]
  pest or weed control at 400 µg/mL: 90 to 100%
[5]
  pest or weed control at 400 µg/mL: 90 to 100%
[6]
  mortality at 50 ppm: 0%
  mortality at 400 ppm: 0%
[7]
  mortality at 50 ppm: 0%
  mortality at 400 ppm: 0%
[8]
  mortality at 50 ppm: 100%
  mortality at 400 ppm: 100%
[9]
  pest or weed control at 400 µg/mL: 90 to 100%
[10]
  mortality at 24 ppm: 100%
[13]
  mortality at 50 ppm: 0%
  mortality at 400 ppm: 0%
[11]
  mortality at 50 ppm: 0%
[12]
  pest or weed control at 50 ppm: 100%
  pest or weed control at 400 ppm: 100%
